# Results published in PubChem BioAssay (NCI).
#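 Five compound concentrations were applied to cells in 96-well plates for 48 hours; endpoints were derived by simple linear interpolation of the resulting dose-response curve. TGI: total growth inhibition.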
# How the values were obtained:
# Assay in all cases: DTP human tumour cell line panel, 48 h
# K-562 leukemia = tested on: K-562 leukemia
# SW-620 colon = tested on: SW-620 colon
# DLD-1 colon = tested on: DLD-1 colon
# LOX IMVI melanoma = tested on: LOX IMVI melanoma
# A549 NSCLC = tested on: A549 NSCLC
# NCI-H226 lung = tested on: NCI-H226 lung
# NCI-H23 lung = tested on: NCI-H23 lung
# HOP-62 NSCLC = tested on: HOP-62 NSCLC
# SF-539 CNS = tested on: SF-539 CNS
# OVCAR-8 ovarian = tested on: OVCAR-8 ovarian
# KM20L2 colon = tested on: KM20L2 colon
# NCI-H522 lung = tested on: NCI-H522 lung
# EKVX NSCLC = tested on: EKVX NSCLC
# M19-MEL melanoma = tested on: M19-MEL melanoma
# CCRF-CEM leukemia = tested on: CCRF-CEM leukemia
# SN12C renal = tested on: SN12C renal
# UACC-62 melanoma = tested on: UACC-62 melanoma
# CAKI-1 renal = tested on: CAKI-1 renal
# ACHN renal = tested on: ACHN renal
# SF-295 CNS = tested on: SF-295 CNS
# SK-OV-3 ovarian = tested on: SK-OV-3 ovarian
# HOP-18 NSCLC = tested on: HOP-18 NSCLC
# 786-0 renal = tested on: 786-0 renal
# HCC-2998 colon = tested on: HCC-2998 colon
# MOLT-4 leukemia = tested on: MOLT-4 leukemia
# HOP-92 NSCLC = tested on: HOP-92 NSCLC
# U251 CNS = tested on: U251 CNS
# DMS 273 small cell lung = tested on: DMS 273 small cell lung
# MALME-3M melanoma = tested on: MALME-3M melanoma
# KM12 colon = tested on: KM12 colon
# DMS 114 small cell lung = tested on: DMS 114 small cell lung
# NCI-H460 lung = tested on: NCI-H460 lung
# SK-MEL-28 melanoma = tested on: SK-MEL-28 melanoma
# IGROV1 ovarian = tested on: IGROV1 ovarian
# SR leukemia = tested on: SR leukemia
# OVCAR-3 ovarian = tested on: OVCAR-3 ovarian
# UACC-257 melanoma = tested on: UACC-257 melanoma
# HT29 colon = tested on: HT29 colon
# HCT-116 colon = tested on: HCT-116 colon
# OVCAR-5 ovarian = tested on: OVCAR-5 ovarian
# HCT-15 colon = tested on: HCT-15 colon
# RXF 393 renal = tested on: RXF 393 renal
# HL-60(TB) leukemia = tested on: HL-60(TB) leukemia
# RXF-631 renal = tested on: RXF-631 renal
# SF-268 CNS = tested on: SF-268 CNS
# SK-MEL-5 melanoma = tested on: SK-MEL-5 melanoma
# SK-MEL-2 melanoma = tested on: SK-MEL-2 melanoma
# TK-10 renal = tested on: TK-10 renal
# COLO 205 colon = tested on: COLO 205 colon
# LXFL 529 NSCLC = tested on: LXFL 529 NSCLC
# SNB-19 CNS = tested on: SNB-19 CNS
# SNB-75 CNS = tested on: SNB-75 CNS
# A498 renal = tested on: A498 renal
# RPMI-8226 leukemia = tested on: RPMI-8226 leukemia
# OVCAR-4 ovarian = tested on: OVCAR-4 ovarian
# M14 melanoma = tested on: M14 melanoma
# SNB-78 CNS = tested on: SNB-78 CNS
# UO-31 renal = tested on: UO-31 renal
structure (smiles),measurement,setting,value
Cn1c(C2CCCc3c2c2ccccc2n3C)cc2ccccc21 (stereo not given),TGI,K-562 leukemia,> 318 µM
same,TGI,SW-620 colon,> 318 µM
same,TGI,DLD-1 colon,> 318 µM
same,TGI,LOX IMVI melanoma,> 318 µM
same,TGI,A549 NSCLC,> 318 µM
same,TGI,NCI-H226 lung,> 318 µM
same,TGI,NCI-H23 lung,> 318 µM
same,TGI,HOP-62 NSCLC,> 318 µM
same,TGI,SF-539 CNS,> 318 µM
same,TGI,OVCAR-8 ovarian,> 318 µM
same,TGI,KM20L2 colon,> 318 µM
same,TGI,NCI-H522 lung,142 µM
same,TGI,EKVX NSCLC,> 318 µM
same,TGI,M19-MEL melanoma,> 318 µM
same,TGI,CCRF-CEM leukemia,> 318 µM
same,TGI,SN12C renal,> 318 µM
same,TGI,UACC-62 melanoma,> 318 µM
same,TGI,CAKI-1 renal,> 318 µM
same,TGI,ACHN renal,> 318 µM
same,TGI,SF-295 CNS,> 318 µM
same,TGI,SK-OV-3 ovarian,> 318 µM
same,TGI,HOP-18 NSCLC,> 318 µM
same,TGI,786-0 renal,> 318 µM
same,TGI,HCC-2998 colon,> 318 µM
same,TGI,MOLT-4 leukemia,> 318 µM
same,TGI,HOP-92 NSCLC,299 µM
same,TGI,U251 CNS,> 318 µM
same,TGI,DMS 273 small cell lung,> 318 µM
same,TGI,MALME-3M melanoma,> 318 µM
same,TGI,KM12 colon,> 318 µM
same,TGI,DMS 114 small cell lung,> 318 µM
same,TGI,NCI-H460 lung,> 318 µM
same,TGI,SK-MEL-28 melanoma,> 318 µM
same,TGI,IGROV1 ovarian,> 318 µM
same,TGI,SR leukemia,> 318 µM
same,TGI,OVCAR-3 ovarian,> 318 µM
same,TGI,UACC-257 melanoma,> 318 µM
same,TGI,HT29 colon,> 318 µM
same,TGI,HCT-116 colon,> 318 µM
same,TGI,OVCAR-5 ovarian,> 318 µM
same,TGI,HCT-15 colon,> 318 µM
same,TGI,RXF 393 renal,> 318 µM
same,TGI,HL-60(TB) leukemia,> 318 µM
same,TGI,RXF-631 renal,> 318 µM
same,TGI,SF-268 CNS,> 318 µM
same,TGI,SK-MEL-5 melanoma,> 318 µM
same,TGI,SK-MEL-2 melanoma,> 318 µM
same,TGI,TK-10 renal,> 318 µM
same,TGI,COLO 205 colon,> 318 µM
same,TGI,LXFL 529 NSCLC,> 318 µM
same,TGI,SNB-19 CNS,> 318 µM
NCCCNC(=O)c1csc(NC(=O)c2csc(NC(=O)CCCN)n2)n1,TGI,K-562 leukemia,> 100 µM
same,TGI,DLD-1 colon,> 100 µM
same,TGI,SNB-75 CNS,> 100 µM
same,TGI,A549 NSCLC,> 100 µM
same,TGI,NCI-H226 lung,> 100 µM
same,TGI,NCI-H23 lung,> 100 µM
same,TGI,HOP-62 NSCLC,> 100 µM
same,TGI,SF-539 CNS,> 100 µM
same,TGI,OVCAR-8 ovarian,> 100 µM
same,TGI,KM20L2 colon,> 100 µM
same,TGI,NCI-H522 lung,> 100 µM
same,TGI,EKVX NSCLC,> 100 µM
same,TGI,M19-MEL melanoma,> 100 µM
same,TGI,CCRF-CEM leukemia,> 100 µM
same,TGI,SN12C renal,> 100 µM
same,TGI,UACC-62 melanoma,> 100 µM
same,TGI,CAKI-1 renal,> 100 µM
same,TGI,A498 renal,> 100 µM
same,TGI,ACHN renal,> 100 µM
same,TGI,SF-295 CNS,> 100 µM
same,TGI,SK-OV-3 ovarian,> 100 µM
same,TGI,HOP-18 NSCLC,> 100 µM
same,TGI,RPMI-8226 leukemia,> 100 µM
same,TGI,786-0 renal,> 100 µM
same,TGI,HCC-2998 colon,> 100 µM
same,TGI,MOLT-4 leukemia,> 100 µM
same,TGI,HOP-92 NSCLC,> 100 µM
same,TGI,OVCAR-4 ovarian,44 µM
same,TGI,M14 melanoma,> 100 µM
same,TGI,U251 CNS,> 100 µM
same,TGI,DMS 273 small cell lung,> 100 µM
same,TGI,MALME-3M melanoma,> 100 µM
same,TGI,KM12 colon,> 100 µM
same,TGI,DMS 114 small cell lung,> 100 µM
same,TGI,NCI-H460 lung,> 100 µM
same,TGI,SK-MEL-28 melanoma,> 100 µM
same,TGI,IGROV1 ovarian,> 100 µM
same,TGI,SR leukemia,> 100 µM
same,TGI,OVCAR-3 ovarian,> 100 µM
same,TGI,UACC-257 melanoma,> 100 µM
same,TGI,HT29 colon,> 100 µM
same,TGI,HCT-116 colon,> 100 µM
same,TGI,OVCAR-5 ovarian,> 100 µM
same,TGI,HCT-15 colon,> 100 µM
same,TGI,HL-60(TB) leukemia,> 100 µM
same,TGI,SNB-78 CNS,> 100 µM
same,TGI,RXF-631 renal,> 100 µM
same,TGI,SF-268 CNS,> 100 µM
same,TGI,UO-31 renal,> 100 µM
same,TGI,SK-MEL-5 melanoma,> 100 µM
same,TGI,SK-MEL-2 melanoma,> 100 µM
same,TGI,TK-10 renal,> 100 µM
same,TGI,COLO 205 colon,> 100 µM
same,TGI,LXFL 529 NSCLC,> 100 µM
CCCCCCCCCCCCC(=O)CCCCC(=O)O,TGI,K-562 leukemia,39.8 µM
same,TGI,SW-620 colon,> 100 µM
same,TGI,DLD-1 colon,38.1 µM
same,TGI,SNB-75 CNS,71.1 µM
same,TGI,LOX IMVI melanoma,46.6 µM
same,TGI,A549 NSCLC,44.6 µM
same,TGI,NCI-H226 lung,59.1 µM
same,TGI,NCI-H23 lung,> 100 µM
same,TGI,HOP-62 NSCLC,41.9 µM
same,TGI,SF-539 CNS,36.6 µM
same,TGI,OVCAR-8 ovarian,39.7 µM
same,TGI,NCI-H522 lung,42.1 µM
same,TGI,EKVX NSCLC,> 100 µM
same,TGI,M19-MEL melanoma,38.9 µM
same,TGI,CCRF-CEM leukemia,> 100 µM
same,TGI,SN12C renal,55.8 µM
same,TGI,UACC-62 melanoma,36.1 µM
same,TGI,CAKI-1 renal,> 100 µM
same,TGI,A498 renal,36.3 µM
same,TGI,ACHN renal,73.7 µM
same,TGI,SF-295 CNS,51.2 µM
same,TGI,SK-OV-3 ovarian,> 100 µM
same,TGI,HOP-18 NSCLC,59.3 µM
same,TGI,RPMI-8226 leukemia,40.8 µM
same,TGI,786-0 renal,84.7 µM
same,TGI,MOLT-4 leukemia,35.7 µM
same,TGI,HOP-92 NSCLC,41.5 µM
same,TGI,OVCAR-4 ovarian,> 100 µM
same,TGI,M14 melanoma,33.6 µM
same,TGI,U251 CNS,79 µM
same,TGI,DMS 273 small cell lung,> 100 µM
same,TGI,MALME-3M melanoma,43.6 µM
same,TGI,KM12 colon,29.5 µM
same,TGI,DMS 114 small cell lung,42 µM
same,TGI,NCI-H460 lung,39.1 µM
same,TGI,SK-MEL-28 melanoma,46.5 µM
same,TGI,IGROV1 ovarian,35.3 µM
same,TGI,SR leukemia,47 µM
same,TGI,OVCAR-3 ovarian,> 100 µM
same,TGI,UACC-257 melanoma,> 100 µM
same,TGI,HT29 colon,30.7 µM
same,TGI,HCT-116 colon,54.6 µM
same,TGI,OVCAR-5 ovarian,35.8 µM
same,TGI,RXF 393 renal,> 100 µM
same,TGI,HL-60(TB) leukemia,33.4 µM
same,TGI,SNB-78 CNS,> 100 µM
same,TGI,RXF-631 renal,38.6 µM
same,TGI,SF-268 CNS,71.6 µM
same,TGI,UO-31 renal,60 µM
same,TGI,SK-MEL-5 melanoma,34.1 µM
same,TGI,SK-MEL-2 melanoma,47.4 µM
same,TGI,TK-10 renal,> 100 µM
same,TGI,COLO 205 colon,32.7 µM
same,TGI,LXFL 529 NSCLC,35.3 µM
same,TGI,SNB-19 CNS,> 100 µM
